{"source": "patent US20050038058A1", "about": "“Novel compounds and methods for therapy” (Institute of Organic Chemistry and Biochemistry, priority 2001, published 2005)", "key": {"HIV-1(IIIB) [1]": {"tested_on": "HIV-1(IIIB)", "assay": "HIV-1(IIIB)-induced cytopathicity in CEM cell cultures", "assay_type": "cell-based", "outline": "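Protection against cytopathicity caused by HIV-1 strain IIIB was measured in CEM cell cultures. The IIIB stock came from supernatants of infected MT-4 cell cultures, and virus was added to the cultures at 100 CCID50. At day 4 to 5 post infection, virus-induced giant cell formation was examined microscopically, and the EC50 was derived from this.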"}, "HIV-1(IIIB) [2]": {"tested_on": "HIV-1(IIIB)", "assay": "HIV-1(IIIB)-induced cytopathicity in MT-4 cell cultures", "assay_type": "cell-based", "details": "Human immunodeficiency virus 1, IIIB, MT4; Table 2", "from_the_text": "(§1) Viruses. The origins of MSV, HIV type 1 (HIV-1) (strain IIIB and Ba-L), HIV-2 (strain ROD) and FIV (strain Petaluma) have been described previously (Balzarini et al., AIDS 5: 21-28, 1991; De Clercq et al., Proc. Soc. Exp. Biol. Med. 137:590-594, 1971; Egberink et al., Proc. Natl. Acad. Sci. 87:3087-3091, 1990; Hartmann et al., Antiviral Chem. Chemother. 5:13-19, 1994; Popovic et al., Science 224:497-500, 1984). HIV-1(IIIB) and HIV-2(ROD) stocks were obtained from supernatants of virus-infected MT-4 cell cultures. HIV-1BaL was expanded in human primary M/M, whose supernatants were collected, filtered and stored at −80° C. before use. Characteristics of viral stocks used for this study were 2.1×10^8 HIV-RNA genomes/ml (corresponding to 35 ng of p24 antigen) and 5,000 tissue culture infectious doses 50% per ml (TCID50/ml) as assessed by virus titration in other primary M/M cultures. The isolation and characterization of the clinical HIV-1 isolates L1S, L6S and L6S/PMEA has been reported (Thormar et al., Proc. Natl. Acad. Sci. USA 93:3283-3287, 1995; Van Laethem et al., AIDS 15:553-561, 2001). […] HIV-1/L6S/PMEA is the clinical isolate HIV-1/L6S that has been isolated after culturing the virus for 11 passages in the presence of increasing concentrations of PMEA (adefovir).\n(§2) In vitro antiviral assays. The activity against HIV-1- and HIV-2-induced cytopathicity was examined in MT-4 cell cultures at day 5 post infection and based on the determination of cell viability by trypan blue dye staining or in CEM cell cultures at day 4 to 5 post infection and based on the microscopical examination of virus-induced giant cell formation. HIV-1 and HIV-2 were added at 100 CCID50 to the cell cultures."}, "HIV-1(IIIB) [3]": {"tested_on": "HIV-1(IIIB)", "assay": "HIV-1(IIIB) p24 antigen production in PBL (PHA-stimulated PBMC)", "assay_type": "cell-based", "details": "Human immunodeficiency virus 1, IIIB, PBMC", "description": "Peripheral blood mononuclear cells (PBMC) from healthy donors were isolated by density centrifugation (Lymphoprep; Nycomed Pharma, AS Diagnostics, Oslo, Norway) and stimulated with phytohemagglutin (PHA) (Sigma Chemical Co., Bornem, Belgium) for 3 days. The activated cells (PHA-stimulated blasts) were washed with PBS and viral infections were done as described by the AIDS clinical trial group protocols. Briefly, PBMCs (2×10^5/200 well) were plated in the presence of serial dilutions of the test compound and were infected with HIV stocks at 1000 CCID50 per mL. At day 4 post-infection, 125 μl of the supernatant of the infected cultures was removed and replaced with 150 μl of fresh medium containing the test compounds at the appropriate concentrations. At 7 days after plating the cells, p24 antigen was detected in the culture supernatant by an enzyme-linked immunosorbent assay (NEN, Paris, France)."}, "MSV": {"tested_on": "MSV", "assay": "MSV-induced transformation of murine embryo fibroblast C3H/3T3 cell cultures", "assay_type": "cell-based", "details": "Mus musculus", "description": "The inhibitory effect of the test compounds on MSV-induced transformation of murine embryo fibroblast C3H/3T3 cell cultures was examined microscopically at day 6 post infection. MSV was added at 75 focus-forming units to the cell cultures. The detailed procedures for the antiretroviral evaluations has been described in detail before (Balzarini et al., AIDS 5:21-28, 1991; Balzarini et al., Antimicrob. Agents Chemother. 37:332-338, 1993; De Clercq et al., Proc. Soc. Exp. Biol. Med. 137:590-594, 1971)."}, "[4]": {"assay": "Alteration of C3H cell morphology (minimal inhibitory concentration)", "assay_type": "cell-based, murine", "details": "mouse, C3H/3T3 embryo fibroblast cells; microscopically visible alteration of cell morphology; > means no visible toxicity at the indicated concentration; read-out: CC50 C3H (minimal inhibitory concentration)"}, "C3H cells": {"tested_on": "C3H cells", "assay": "Alteration of C3H cell morphology (minimal inhibitory concentration)", "assay_type": "cell-based, murine", "details": "Table 2, footnote c"}, "CEM cells": {"tested_on": "CEM cells", "assay": "Incorporation of [3H]thymidine, [3H]uridine and [3H]leucine into CEM cell material", "assay_type": "cell-based", "details": "200 μg/mL; 12 hour incubation period", "description": "The incorporation of [methyl-^3H]thymidine, [^3H]uridine and [^3H]leucine into the methanol-insoluble CEM cell fraction was also measured in microplates. To each well were added 10^5 CEM cells, 5.9 pmol (0.25 μCi) of [methyl-^3H]thymidine, 38 pmol (1.0 μCi) of [^3H]uridine and 19 pmol (1.0 μCi) [4,5-^3H]leucine, and a given amount of the test compound. […] At the end of this incubation period, the contents of the wells (200 μl) were brought onto 25-mm glass fiber filters (type A/G; Gelman Instrument Co., Ann Arbor, Mich.) mounted on a Millipore 3025 sampling manifold apparatus. The filters were washed twice with cold PBS (phosphate-buffered saline), twice with cold 10% trichloroacetic acid, twice with cold 5% trichloroacetic acid, once with cold ethanol, and once with cold ether. The filters were then allowed to dry for 10 min at 60° C. and assayed for radioactivity in a toluene-based scintillant."}, "HIV-1/L1S": {"tested_on": "HIV-1/L1S", "assay_type": "cell-based", "details": "measured against the laboratory HIV-1/IIIB strain in CEM cell cultures", "from_the_text": "as §1, §2"}, "HIV-1/L6S/PMEA": {"tested_on": "HIV-1/L6S/PMEA", "assay_type": "cell-based", "details": "measured against the laboratory HIV-1/IIIB strain in CEM cell cultures", "from_the_text": "as §1, §2"}, "HIV-1/L6S": {"tested_on": "HIV-1/L6S", "assay_type": "cell-based", "details": "measured against the laboratory HIV-1/IIIB strain in CEM cell cultures", "from_the_text": "as §1, §2"}, "[5]": {"tested_on": "HIV-1(IIIB) strains containing L100I, K103N, Y181C and Y188H mutations in the RT", "assay": "HIV-1(IIIB) strains with NNRTI-specific RT mutations in CEM cell cultures", "assay_type": "cell-based", "details": "data not shown", "description": "as §2"}}, "note": "Read-outs that look alike come from different tables or passages of the source."}
{"smiles": "Nc1cc(OCCOCP(=O)(O)O)nc(N)n1", "note": "[Compound 1, 2,4-diamino-6-[2-(phosphonomethoxy)ethoxy]pyrimidine]", "values": [{"measurement": "EC50", "setting": "HIV-1(IIIB) [1]; Human immunodeficiency virus 1, CCRF-CEM, HIV-1 (IIIB) in CEM, no addition, Table 3, read-out: EC50 as such", "result": "0.77 ± 0.25", "unit": "µg/mL"}, {"measurement": "EC50", "setting": "HIV-1(IIIB) [1]; Human immunodeficiency virus 1, CCRF-CEM, HIV-1 (IIIB) in CEM, Ade 100 μM, read-out: EC50 upon addition of Ade (100 μM)", "result": "0.26 ± 0.16", "unit": "µg/mL"}, {"measurement": "EC50", "setting": "HIV-1(IIIB) [1]; Human immunodeficiency virus 1, CCRF-CEM, HIV-1 (IIIB) in CEM, Ado 400 μM, read-out: EC50 upon addition of Ado (400 μM)", "result": "0.63 ± 0.29", "unit": "µg/mL"}, {"measurement": "EC50", "setting": "HIV-1(IIIB) [1]; Human immunodeficiency virus 1, CCRF-CEM, HIV-1 (IIIB) in CEM, Guo 10 μM, read-out: EC50 upon addition of Guo (10 μM)", "result": "0.65 ± 0.21", "unit": "µg/mL"}, {"measurement": "EC50", "setting": "HIV-1(IIIB) [1]; Human immunodeficiency virus 1, CCRF-CEM, HIV-1 (IIIB) in CEM, dCyd 1 mM, read-out: EC50 upon addition of dCyd (1 mM)", "result": "0.55 ± 0.35", "unit": "µg/mL"}, {"measurement": "EC50", "setting": "HIV-1(IIIB) [1]; Human immunodeficiency virus 1, CCRF-CEM, HIV-1 (IIIB) in CEM, dThd 10 μM, read-out: EC50 upon addition of dThd (10 μM)", "result": "0.35 ± 0.07", "unit": "µg/mL"}, {"measurement": "EC50", "setting": "HIV-1(IIIB) [1]; Human immunodeficiency virus 1, CCRF-CEM, HIV-1(IIIB)-induced cytopathicity in CEM cell cultures, Table 1, read-out: EC50 HIV-1 (CEM)", "result": 0.8, "unit": "µg/mL"}, {"measurement": "EC50", "setting": "HIV-1(IIIB) [1]; Human immunodeficiency virus 1, IIIB, CCRF-CEM, giant cell formation, mean ±SD of 2 to 4 experiments, Table 2, read-out: EC50 HIV-1 (IIIB) (CEM)", "result": "0.9 ± 0.4", "unit": "µg/mL"}, {"measurement": "EC50", "setting": "HIV-1(IIIB) [2]", "result": "0.34 ± 0.03", "unit": "µg/mL"}, {"measurement": "EC50", "setting": "HIV-1(IIIB) [3]; p24 antigen production, Table 2, read-out: EC50 HIV-1 (IIIB) (PBL)", "result": "0.07 ± 0.02", "unit": "µg/mL"}, {"measurement": "EC50", "setting": "HIV-1(IIIB) [3]; read-out: EC50 HIV-1(IIIB) in PBL", "result": 0.07, "unit": "µg/mL"}, {"measurement": "EC50", "setting": "MSV; C3H, read-out: EC50 against MSV-induced C3H cell transformation", "result": "0.05 to 0.15", "unit": "µg/mL"}, {"measurement": "EC50", "setting": "MSV; MSV-induced C3H cell transformation, Table 2, read-out: EC50 MSV (C3H)", "result": "0.16 ± 0.04", "unit": "µg/mL"}, {"measurement": "Minimal concentration causing visible cell morphology alteration", "setting": "[4]", "result": "> 40", "unit": "µg/mL"}, {"measurement": "Compound concentration at which morphological toxicity was observed, C3H (value between parentheses)", "setting": "C3H cells", "result": 200, "unit": "μg/ml"}, {"measurement": "Inhibition of [3H]dThd, [3H]Urd and [3H]leu incorporation into TCA-insoluble CEM cell material (macromolecular synthesis)", "setting": "CEM cells", "result": "Neither compounds 1 nor 2, nor compound 11 were inhibitory"}, {"measurement": "-Fold Resistance HIV-1/L1S", "setting": "HIV-1/L1S", "result": 0.8, "unit": "fold"}, {"measurement": "-Fold Resistance HIV-1/L6S/PMEA", "setting": "HIV-1/L6S/PMEA", "result": 3.6, "unit": "fold"}, {"measurement": "-Fold Resistance HIV-1/L6S", "setting": "HIV-1/L6S", "result": 1.5, "unit": "fold"}, {"measurement": "Activity against NNRTI-specific mutant virus strains, in words", "setting": "[5]", "result": "retained full activity"}]}
